Test results as given in US20100286154A1, “ANTIHELMINTIC PASTE” (priority 2007, published 2010).

Experiment: Paste stability test (storage in glass containers, assay of active ingredients by HPLC)
Assay type: physicochemical
Conditions: paste composition of Example 2, glass containers
From the text: The paste composition of Example 2 was stored in glass containers at different temperatures for up to 12 months and assay of both active ingredients followed by HPLC analysis at given time points (3-, 6- and 12-months).

Content in % of start value (5° C., 3 month): 102.20%
Content in % of start value (5° C., 6 month): 103.98%
Content in % of start value (5° C., 12 month): 103.56%
Content in % of start value (25° C., 3 month): 102.52%
Content in % of start value (25° C., 6 month): 101.99%
Content in % of start value (25° C., 12 month): 102.73%
Content in % of start value (30° C., 3 month): 100.63%
Content in % of start value (30° C., 6 month): 102.31%
Content in % of start value (30° C., 12 month): 102.62%
Content in % of start value (40° C., 3 month): 101.36%
Content in % of start value (40° C., 6 month): 102.10%
Content in % of start value (40° C., 12 month): 100.94%
Structure (SMILES): O=C(C1CCCCC1)N1CC(=O)N2CCc3ccccc3C2C1 (stereo not drawn) [Praziquantel, 2-(cyclohexylcarbonyl)-1,2,3,6,7,11b-hexahydro-4H-pyrazino[2,1-a]isoquinoline-4-one]
